The record followed here is US9921212B2, “Preventive and therapeutic drug for cartilaginous hyperplasia and method of screening for the same” (KYOTO UNIVERSITY, priority 2014, dated 2018).

Assay [1] relates to mutant-type iPSC-derived chondrocytes. Nature of the assay: 2D micromass culture with inhibitor added, cartilaginous hyperplasia (pellet size, GAG). The conditions noted are these: 10 μM or 1 μg/mL. Format: cell-based, human. The protocol:
(§1) Chondroprogenitor cells (1.5×10^5 cells) obtained via the above method were suspended in a cartilage induction medium containing 40 ng/ml PDGF-BB and 1% FCS and the suspension was spotted in the form of […] drops on a fibronectin-coated 24-well plate (BD), followed by culture. In this case, the medium was replaced every three days. Six days later, 10 ng/ml TGFβ3 was further added for culture. Ten days after the start of 2D micromass culture, PDGF-BB was substituted with 50 ng/ml BMP4 (WAKO). 2D micromass culture was performed at 37° C. in 5% CO2 for 14 days.
Subsequently, quantitative analysis of the amount of DNA and the glycosaminoglycan production amount after chondrocyte differentiation was conducted. The amount of DNA was determined using a Pico Green dsDNA Quantitation kit (Invitrogen) in the manner described in Nasu A, et al., PloS one. 8(1): e53771 (2013). The extracellular matrix production amount was determined using Blyscan glycosaminoglycan Assay (Biocolor) in accordance with the manufacturer's protocol. As a result, no difference in the amount of DNA in chondrocytes was found between wild-type iPSC-derived cartilage tissue and mutant-type iPSC-derived cartilage tissue in both cases of 2D micromass culture and 3D pellet culture (FIGS. 3B and 3C). […]

The test system of assay [2] is SOX9. Kind of assay: 2D micromass culture with inhibitor added, SOX9 expression. It is filed as cell-based, human. The conditions noted are these: 10 μM or 1 μg/mL. On the procedure:
as §1
(§2) mRNA was isolated from each cell using an RNeasy Mini Kit (Qiagen). cDNA was synthesized via reverse transcription using 1 μg of the obtained total RNA as a template and a Superscript III reverse transcriptase (Invitrogen). A standard curve for quantitative real-time PCR was created to conduct analysis. Real-time PCR analysis was conducted using a Power SYBR Green qPCR mastermix (Invitrogen) and a StepOne real-time PCR system (ABI) for quantitative determination.
Further, 2D micromass culture was performed with the addition of 10 μM or 1 μg/mL Ac-YVAD-CHO. As a result, there was no influence in cartilaginous hyperplasia (FIGS. 6A, 6B, 6D, 6E, 6F, and 6H) or SOX9 expression (FIGS. 6C and 6G).

The subject of the next assay is human SOX9 promoter. Kind of assay: human SOX9 promoter luciferase reporter activity in chondroprogenitor cells. It is filed as cell-based. The settings on record: mutant-type chondroprogenitor cells, 10 μM, 24 hours. The text has this: In order to examine SOX9 regulation, human SOX9 promoter activity in chondroprogenitor cells was confirmed. A reporter construct prepared by inserting a −927- to +84-bp human SOX9 promoter region (transcription start site: 0) into a pGL3-luciferase reporter plasmid (Promega) in accordance with Ushita M et al., Osteoarthritis and cartilage/OARS, Osteoarthritis Research Society. 2009; 17(8): 1065-75 was used for confirmation (FIG. 7A and Table 2). Chondroprogenitor cells obtained by the above method were seeded on a 6-well plate (50000 cells/well). A FuGENE 6 transfection reagent was used for transfection (2 μg DNA/well). Twenty four hours later, luciferase activity was determined using a Dual-Luciferase Reporter Assay Kit (Promega) and a Centro XS^3 LB 960 Microplate Luminometer (BERTHOLD) for calculation of promoter activity. […] Next, in order to identify mutation of a site responsible for NLRP3-dependent responsiveness, reporter constructs each having a mutation in an NFAT-binding sequence, an AP-1-binding sequence, an NF-κB-binding sequence, an Sp1-binding sequence, or an CREB/ATF-binding sequence were prepared as listed in Table 3. These mutated reporter constructs were transfected into chondroprogenitor cells in the above manner to confirm promoter activity. […]
On the technique in general: Reporter assays use an easily measured gene product as a stand-in for the process of interest.

Assay [3] deals with mutant-type chondroprogenitor cells. Nature of the assay: 3D pellet culture, size of cartilaginous pellets (Alcian Blue stained area), mutant-type. It is filed as cell-based, human. The conditions noted are these: added during 3D pellet culture. The protocol: Chondroprogenitor cells obtained by the above method were cultured in a cartilage induction medium containing 5 ng/mL FGF2 and 10 ng/ml TGFβ3 for 3 days. Then, 2.5×10^5 cells were centrifuged to form a pellet, followed by culture in a cartilage induction medium containing 0.5 ml of 40 ng/ml PDGF-BB and 1% FCS, as in the case of 2D micromass culture. Six days later, 10 ng/ml TGFβ3 was further added for culture. Ten days later, PDGF-BB was substituted with 50 ng/ml BMP4 (WAKO). 3D pellet culture was mained at 37° C. in 5% CO2 for 28 days.
In order to examine the chondrocytes induced via 2D micromass culture and those induced via 3D pellet culture, the cells obtained by 2D micromass culture were fixed with 4% paraformaldehyde (PFA) for 1 hour and stained with 1% Alcian Blue (pH 1.0) (Sigma-Aldrich), and the cells obtained by 3D pellet culture were fixed with 4% paraformaldehyde (PFA) for 1 hour and stained with 0.1% Alcian Blue (pH 1.0) (Sigma-Aldrich). Further, immunostaining was carried out using an anti-COL2 antibody (Thermo Scientific). Alcian blue is a reagent for detecting an extracellular matrix secreted by chondrocytes, and COL2 is a gene that is expressed in a chondrocyte-specific manner.
Further, the influence of adenylate cyclase was examined with the addition of forskolin and SQ22536 during 3D pellet culture. […]

Assay [4] has as its system SOX9. Nature of the assay: mRNA expression of SOX9 in chondroprogenitor cells with forskolin and SQ22536 added. It is filed as cell-based, human. The settings on record: wild-type and mutant-type chondroprogenitor cells. On the procedure: as §2
In order to examine whether or not the […] signal transduction pathway is involved in cartilaginous hyperplasia, analysis was conducted using forskolin, which is an adenylate cyclase activator, and SQ22536, which is an adenylate cyclase inhibitor. This test was conducted by introducing a human SOX9 promoter into chondroprogenitor cells, immediately treating the cells with 10 μM forskolin (CALBIOCHEM) or 10 μM SQ22536 (Sigma-Aldrich), and incubating cells for 24 hours so as to determine luciferase activity. As a result, the SOX9 promoter activity in mutant-type chondroprogenitor cells treated with forskolin increased to a level 2.3 times that of mutant-type chondroprogenitor cells (control) treated with a base (DMSO) (FIG. 7D). Meanwhile, the SOX9 promoter activity in mutant-type chondroprogenitor cells treated with SQ22536 decreased to a level half that in the control (FIG. 7D).

Take Ac-YVAD-CHO: the “influence in cartilaginous hyperplasia” value in assay [1] is recorded as “no influence”. Further, the “influence in SOX9 expression” value in the assay on SOX9 [2] is on record as “no influence”.
For `C=C[C@@]1(C)CC(=O)[C@]2(O)[C@@]3(C)[C@@H](O)CCC(C)(C)[C@@H]3[C@H](O)[C@H](OC(C)=O)[C@@]2(C)O1` [forskolin], the “SOX9 promoter activity, increase relative to control treated with a base (DMSO)” value in the assay on human SOX9 promoter came to 2.3 times. Besides, in assay [3], the “size, increase relative to control treated with a base (DMSO)” value came to 2.0 times.
Regarding `Nc1ncnc2c1ncn2C1CCCO1` (stereo not shown) [SQ22536, 9-(tetrahydro-2-furanyl)-adenine], the “SOX9 promoter activity, decrease relative to control treated with a base (DMSO)” value with human SOX9 promoter is on record as “half”. For the same compound, the “effect on mRNA expression of SOX9, relation to SOX9 promoter activity data” value in the assay on SOX9 [4] is “correlated”. Besides, the “size, decrease relative to control treated with a base (DMSO)” value in assay [3] is on record as 2.1 times less.
